Source: a melting point compilation (Tetko et al.; mined from patent text by program, amines drawn as free bases though some values may be those of a salt)

SMILES | melting point
NC(=O)c1cc(-c2ccncc2)sc1-c1ccncc1 | 240 to 242 °C
COc1ccc(CCCCCCCCO)cc1 | 47 to 49 °C
c1c(NC23CC4CC(CC(C4)C2)C3)nc(NC23CC4CC(CC(C4)C2)C3)nc1N1CCNCC1 | 168 to 175 °C
c1ccc(-c2cccc3c2CCN(Cc2c[nH]c4ncccc24)C3)cc1 | 202 to 204 °C
CC1(C)Oc2cc3nonc3cc2C(N2CCC(Br)CC2=O)C1O (stereo unspecified) | 250 to 253 °C
CCn1c(N)c(-c2ncc[nH]2)c(=O)c2ccc(-c3ccc(CC(=O)NCc4ccncc4)nc3)nc21 | 120 °C
O=C(O)CCc1ccc(OCc2sc3ccccc3c2Cl)cc1 | 136 to 137 °C
CC(C)(C)NC(=O)C(C#N)C(=O)C1CC1 (stereo unspecified) | 97 to 98.5 °C
O=C=Nc1c(Cl)cc(Cl)cc1Cl | 65 to 66 °C
Cc1ccc(Cc2cnc(NCCCNc3ncccc3C)[nH]c2=O)cn1 | 119 to 123 °C
O=C1CC(c2cccc(-c3nc(CO)cs3)c2)=Nc2ccc(-n3cccc3)cc2N1 | 238 to 240 °C
CC(c1cccc(-c2c[nH]nn2)c1)C(O)(Cn1cncn1)c1ccc(F)cc1F (stereo unspecified) | 168 to 170 °C
Cc1c(NC(=O)c2ccc(-c3ccc(Cl)cc3)cc2)ccc2cc(CN3CCCC3)cnc12 | 227 to 229 °C
CCSc1scnc1C(=O)O | 158 to 159 °C
O=c1[nH]c2ncc(-c3ccc(O)cc3)nc2n1C1CCOCC1 | 382 to 383 °C
O=C1c2ccccc2S(=O)(=O)N1CCCCBr | 72 °C
N#Cc1ccc2c(c1)c(C1CCC(=O)CC1)cn2Cc1ccccc1 | 115 to 126 °C
Cn1c(C(F)(F)F)cc(=O)n(-c2c(F)cc(Cl)c3cc(-c4ccccc4)oc23)c1=O | 215 to 216 °C
Cc1nc(C#N)sc1-c1ccncc1 | 169 to 170 °C
Cc1nc(SC(=N)N)[nH]c1C | 283 to 285 °C
O=C1C=C(NC(=O)C(=O)c2cn(Cc3ccccc3[N+](=O)[O-])c3ccccc23)CO1 | 257 to 260 °C
CCCn1c(-c2ccccc2)nc2cc(CO)ccc21 | 113 °C

SMILES | melting point
O=C(c1ccco1)N1CCN(c2cc(-c3ccc(F)cc3)c3c(n2)CCC3)CC1 | 165 to 166 °C
NC1(Cl)C=CN=C(Cl)N1 (stereo unspecified) | 55 to 56 °C
N#CCC1(c2ccc(Cl)cc2)CCC1 | 63 to 65 °C
Cc1nc2c(cc1C(=O)O)CCCC2 | 196 to 197 °C
CCCCCCCCc1cc2c(s1)NC(=O)CN=C2c1ccccc1Cl | 131 to 133 °C
CCCCCCCCCCCCCCCC(=O)N1C[C@H](O)C[C@H]1C(=O)OCCCCCCCCCCCC | 39 to 44 °C
O=C(NCCCn1cncn1)c1ccc(Cl)nc1 | 87 to 89 °C
CN=C(NC#N)Nc1ccc2c(c1)CCC1CC(=O)NN=C21 (stereo unspecified) | 289 °C
Cn1cc(Br)cc(Nc2ccccn2)c1=O | 153 to 154 °C
CC1=Nc2c(C)nn(C)c2C2=NC(C)(C)CN12 | 148 to 150 °C
COCCn1nc2c(N)nc3ccccc3c2c1CC1CCOCC1 | 189 to 190 °C
CNC1C(O)CC2C3CCC4CC(=O)CCC4(C)C3CCC21C (stereo unspecified) | 167 to 174 °C
O=C1C=C2CCCCC2N1c1ccc(OCCN2CCOCC2)cc1 (stereo unspecified) | 96 °C
O=c1cc(OCc2ccccc2Cl)ccn1Cc1ccccc1 | 125 °C
Clc1cc(Cl)nc(-n2cnc3ccccc32)n1 | 173 to 175 °C
C[C@@H](n1ncn(-c2ccc(O)cc2)c1=O)[C@](O)(Cn1cncn1)c1ccc(F)cc1F | 242 °C
NC(=O)Cn1nccc1-c1ccc(Oc2ccc(F)cc2)cc1 | 168 to 169 °C
CC(C)(C)OC(=O)N1CCC2(CC1)CC(=O)N(OCCO)C2=O | 97 to 98 °C
CC(NC(=O)CCBr)c1ccccc1 (stereo unspecified) | 69 to 70 °C
CCC(CC)Nc1nc(C)nc(N2CCc3cc(Cl)cc(Cl)c32)c1C#N | 163 to 165 °C
NS(=O)(=O)c1cnccc1C1=NOCCO1 | 163 to 164 °C
N#Cc1c(Cl)[nH]c(Cl)c1Cl | > 300 °C

SMILES | melting point
Cc1ccc(C(Cl)=C(Cl)Cl)cn1 | 37 to 39 °C
Nc1ncc(-c2ccccc2-c2ncccn2)c(N)n1 | 95.1 °C
CC(C)N(C(=O)Cl)c1ccccc1 | 89 to 90 °C
COCc1cccc(COC)c1C#N | 80 to 81 °C
Cc1c(-c2ccccc2)nn(N)c1OCCN1CCOCC1 | 96 °C
CCOC(=O)C(C)(C)Oc1ccc(C=Cc2ccccc2)cc1 | 55 to 65 °C
Nc1ccc2nc(-c3ccccc3)sc2c1 | 200 to 201 °C
Clc1ccc(-c2onc3c(CBr)cccc23)cc1 | 153 to 155 °C
O=C(Nc1ccc(-n2nc(C(F)(F)F)cc2C(F)(F)F)cc1)c1ccc(Cl)nc1Cl | 115 to 117 °C
COc1ccc(-c2ccc3c(-c4ccccc4)c(OC)ccc3c2)cc1 | 157 to 160 °C
Nc1ccc2c(C3=CN4CCC3CC4)c[nH]c2c1 | 65 to 67 °C
CN(C)N=C1CCC2C3CCc4cc(O[Si](C)(C)C(C)(C)C)ccc4C3CCC12C (stereo unspecified) | 100 to 103 °C
c1ccc(N2CCN(CCCc3cccnc3)CC2)nc1 | 51 to 52 °C
Cc1cc(SC#N)c(C(C)(C)C)cc1O | 99 to 102 °C
Cc1cc(C)cc(N(CCCC(=O)O)Cc2ccc3nc(NCCCN4CCOCC4)n(Cc4nc(C)ccc4O)c3c2)c1 | 121 °C
CCC(=O)Nc1c(-c2c(F)cc(F)cc2F)c(Cl)nc2ncnn12 | 162 to 165 °C
CC(C)C1C(O)=CC(=O)N1c1ccc(C#N)c(Cl)c1 (stereo unspecified) | 217 to 219 °C
CC(C)n1nc(-c2c(Oc3ccccc3)nc(N)nc2-c2ccccc2)ccc1=O | 218 to 221 °C
CCCCC(CC)n1c(CC)nc2c(-c3c(C)cc(C)cc3C)ncnc21 (stereo unspecified) | 99 to 100 °C
CN(C)CCc1c[nH]c2ccc(CCS(=O)(=O)Nc3ccccc3)cc12 | 144 to 146 °C
CC1(C)OC(=S)Nc2c(Br)cc(-c3cc(F)cc(C#N)c3)cc21 | 219 to 220 °C

Other lines, results leading:

melting point | SMILES
241 °C | CC(=O)OCC1OC(n2c(=S)[nH]c3cc(Cl)c(Cl)cc32)C(OC(C)=O)C1OC(C)=O (stereo unspecified)
137 to 139 °C | CS(=O)(=O)Nc1ccc(C(O)(C(F)(F)F)C(F)(F)F)cc1
103 to 106 °C | CCOC(=O)C(=Cc1cccc([N+](=O)[O-])c1)C(C)=O
89 °C | COC(=O)c1cccc(Oc2ccnc(Cl)c2)n1
119 to 120 °C | O=C1CC(C(=O)OCc2ccccc2)C(=O)C(Cc2ccccc2)N1 (stereo unspecified)
37.5 to 38.5 °C | O=C(Oc1cccc(F)c1)c1ccccc1F
188 to 190 °C | NS(=O)(=O)c1ccc(-n2nc(C(F)(F)F)cc2-c2ccc(-c3cscn3)cc2)cc1
82 to 84 °C | CS(=O)(=O)Oc1ccc(O)cc1
64 to 67 °C | COC(=O)c1ccccc1S(=O)COc1ccc(Cl)cc1Cl (stereo unspecified)
227 to 229 °C | O=C(O)CN1C(=O)C(=Cc2cccc(Cl)c2)SC1=S
214 to 216 °C | CC(=O)Nc1cccc(/C=C/C(=O)N2CC(CCl)c3c2cc([N+](=O)[O-])c2ccccc32)c1 (stereo unspecified)
297 to 300 °C | NC(=O)C(=O)Nc1nc(-c2cc3ccccc3oc2=O)cs1
237 to 238 °C | Cn1c(=O)[nH]c2ccc(Br)cc21
92 to 94 °C | CCCc1c(O)cccc1Oc1cc(F)ccc1C(=O)OC
65.5 to 67.5 °C | CN(C)CCCOC(=O)c1cccc2c(-c3ccccc3)c([N+](=O)[O-])oc12
170 °C | CS(=O)(=O)c1ccc(-c2cc(C(=O)c3ccc(Cl)cc3Cl)sc2N2CCOCC2)cc1
208 to 209 °C | CC(C)(C)OC(=O)N1CCN(c2ccc(OCC3(C)CCn4cc([N+](=O)[O-])nc4O3)cc2)CC1 (stereo unspecified)
100 to 101 °C | Cc1cc2c(c(C)c1S(=O)(=O)C[N+](=O)[O-])CCCC(C)(C)O2
234 to 235 °C | O=C(O)CCc1c(C(=O)O)[nH]c2cc(Br)ccc12
67 to 68 °C | CC(=O)OC1CSC(Oc2cc(-c3cccnc3)cnc2F)C(OC(C)=O)C1OC(C)=O (stereo unspecified)
195 to 199 °C | COc1c(Cl)c(F)cc2c(=O)c(C(=O)O)cn(C3CC3)c12

melting point | SMILES
178 to 180 °C | COC(=O)c1c(-c2ccc(C#N)cc2)cn(-c2ccc(Br)cc2)c1C(=O)OC
159 °C | COC(=O)COc1ncccc1Oc1cc(NC(=O)CC(=O)C(F)(F)F)c(F)cc1Cl
120 to 122 °C | CC(=O)Nc1ccc2nc(CN3[C@H](C)CCC[C@@H]3C)ccc2c1
238 to 240 °C | COc1ccc2c(C(=O)O)nn(Cc3ccc(Cl)c(Cl)c3)c(=O)c2c1
222 to 225 °C | Cc1[nH]c(C(=O)C(Cl)(Cl)Cl)c2c1-c1ccc(Cl)cc1C(c1ccccc1F)=NC2
104 to 105 °C | CCCCNC1=CC(=O)c2c(OC)ccc(OC)c2C1=O
292 to 295 °C | CNC(=O)c1cn(-c2cc3c(=O)n(NS(C)(=O)=O)c(=O)[nH]c3cc2C(F)(F)F)cn1
150 to 151 °C | O=C(O)c1cc2ccc(OCCc3ccccc3)cc2oc1=O
135 to 137 °C | CC(C)(C)OC(=O)Nc1ccc(F)c(F)c1
101 to 102 °C | CCCc1c(OCCCOc2ccc3c(c2CCC)OC(CCC(=O)OC)CC3=O)ccc(C(C)=O)c1O (stereo unspecified)
136 to 138 °C | CC(=O)OCc1cc(N)ccc1N1C(=O)c2ccc(Cl)cc2C1=O
142 to 143 °C | COc1c(C)c(C)c(OC)c(C(CCCC(=O)O)c2ccccc2)c1C (stereo unspecified)
195 to 197 °C | O=C(Cc1ccnc2c1NC(=O)c1cccnc1N2C1CC1)c1ccccc1
188 to 190 °C | COC(=O)C1=C(C)NC(=S)N(S(C)(=O)=O)C1c1cccc([N+](=O)[O-])c1 (stereo unspecified)
114 to 116 °C | CCOC(=O)c1sc(-c2ccccc2)nc1O
113 to 115 °C | CC(=O)N1CCN(C(C)=O)C1=Nc1ccc(Cl)cc1Cl
137 to 138 °C | COC(=O)Cc1cccc2c(=O)cc(C3=CCCCC3)oc12
155 to 156 °C | CC(C)(C)OC(=O)N1CC(=O)Nc2cccc(F)c21
139 °C | CCOC(=O)C1=C(N)NC(N)=C(C(=O)OCC)C1c1ccccc1
148 °C | CC(=O)c1ccc(N2C(=O)C(=O)N(c3cccc(Cl)c3)C2=O)cc1
